Measurements published in US8148391B2 (Cephalon, Inc., priority 2006, dated 2012).
Where two headings read alike, the source gives them in different places. Each block holds one compound with its values, some of them ahead of it.

Assays:
[1] = molecular target: T1, baculovirus-expressed ALK (Homo sapiens, UniProt Q9UM73); experiment: ALK Kinase Assay (ELISA-type, time-resolved fluorescence); assay type: biochemical
T1 construct: host or cells: baculovirus expression system
Method in brief: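 Wells were coated with phospholipase C-γ at 10 μg/mL in Tris-buffered saline. Adding 30 ng/ml enzyme started the reaction, which ran at 37° C for 15 minutes before Eu-N1 PT66 antibody detection. Percent inhibition versus log10 concentration gave IC50 by variable-slope fit.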

[2] = molecular target: T2, c-Met (cytoplasmic domain) (Homo sapiens, UniProt P08581); experiment: c-Met Kinase Assay (same methods as for ALK, with modifications); assay type: biochemical
T2 construct: 10 ng/mL c-Met (cytoplasmic domain, Invitrogen Corporation #PV3143); purchased Invitrogen Corporation PV3143
T2 sequence (P08581 956-1390 limits assumed): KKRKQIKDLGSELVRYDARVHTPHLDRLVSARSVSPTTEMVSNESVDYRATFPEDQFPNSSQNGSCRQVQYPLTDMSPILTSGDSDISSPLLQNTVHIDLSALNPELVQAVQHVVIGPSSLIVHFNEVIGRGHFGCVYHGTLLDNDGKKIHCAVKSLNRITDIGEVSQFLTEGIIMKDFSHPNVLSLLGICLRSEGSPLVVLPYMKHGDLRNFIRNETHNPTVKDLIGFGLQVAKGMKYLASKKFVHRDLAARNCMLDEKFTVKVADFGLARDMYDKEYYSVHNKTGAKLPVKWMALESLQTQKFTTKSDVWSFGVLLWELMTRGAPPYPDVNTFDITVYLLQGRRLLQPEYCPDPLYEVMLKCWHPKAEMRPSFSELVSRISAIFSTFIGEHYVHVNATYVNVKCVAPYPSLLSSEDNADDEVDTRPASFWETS
Method in brief: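 Steps: coat wells with PLC-γ (10 μg/mL, Tris-buffered saline); add 10 ng/mL c-Met cytoplasmic domain to initiate; incubate 15 min, 37° C; detect phosphoproduct via Eu-N1 PT66 antibody.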

[3] = ALK kinase inhibition, 1 μM ATP (Km level), read-out: ALK Activity
[4] = c-Met kinase inhibition, 1 μM ATP (Km level), read-out: cMet Activity
[5] = ALK kinase inhibition, 1 μM ATP, read-out: ALK Activity
[6] = c-Met kinase inhibition, 1 μM ATP, read-out: cMet Activity
[7] = 1 μM ATP (Km level), 30 ng/ml ALK, 37° C., 15 minutes, read-out: ALK Activity (ALK kinase inhibition, IC50 class)
[8] = 1 μM ATP (Km level), 10 ng/mL c-Met, read-out: cMet Activity (c-Met kinase inhibition, IC50 class)
[9] = 1 μM ATP (Km level), read-out: ALK Activity (ALK Kinase Inhibition, IC50)
[10] = 1 μM ATP (Km level), read-out: cMet Activity (c-Met Kinase Inhibition, IC50)

T1 sequence (Q9UM73 19-1620): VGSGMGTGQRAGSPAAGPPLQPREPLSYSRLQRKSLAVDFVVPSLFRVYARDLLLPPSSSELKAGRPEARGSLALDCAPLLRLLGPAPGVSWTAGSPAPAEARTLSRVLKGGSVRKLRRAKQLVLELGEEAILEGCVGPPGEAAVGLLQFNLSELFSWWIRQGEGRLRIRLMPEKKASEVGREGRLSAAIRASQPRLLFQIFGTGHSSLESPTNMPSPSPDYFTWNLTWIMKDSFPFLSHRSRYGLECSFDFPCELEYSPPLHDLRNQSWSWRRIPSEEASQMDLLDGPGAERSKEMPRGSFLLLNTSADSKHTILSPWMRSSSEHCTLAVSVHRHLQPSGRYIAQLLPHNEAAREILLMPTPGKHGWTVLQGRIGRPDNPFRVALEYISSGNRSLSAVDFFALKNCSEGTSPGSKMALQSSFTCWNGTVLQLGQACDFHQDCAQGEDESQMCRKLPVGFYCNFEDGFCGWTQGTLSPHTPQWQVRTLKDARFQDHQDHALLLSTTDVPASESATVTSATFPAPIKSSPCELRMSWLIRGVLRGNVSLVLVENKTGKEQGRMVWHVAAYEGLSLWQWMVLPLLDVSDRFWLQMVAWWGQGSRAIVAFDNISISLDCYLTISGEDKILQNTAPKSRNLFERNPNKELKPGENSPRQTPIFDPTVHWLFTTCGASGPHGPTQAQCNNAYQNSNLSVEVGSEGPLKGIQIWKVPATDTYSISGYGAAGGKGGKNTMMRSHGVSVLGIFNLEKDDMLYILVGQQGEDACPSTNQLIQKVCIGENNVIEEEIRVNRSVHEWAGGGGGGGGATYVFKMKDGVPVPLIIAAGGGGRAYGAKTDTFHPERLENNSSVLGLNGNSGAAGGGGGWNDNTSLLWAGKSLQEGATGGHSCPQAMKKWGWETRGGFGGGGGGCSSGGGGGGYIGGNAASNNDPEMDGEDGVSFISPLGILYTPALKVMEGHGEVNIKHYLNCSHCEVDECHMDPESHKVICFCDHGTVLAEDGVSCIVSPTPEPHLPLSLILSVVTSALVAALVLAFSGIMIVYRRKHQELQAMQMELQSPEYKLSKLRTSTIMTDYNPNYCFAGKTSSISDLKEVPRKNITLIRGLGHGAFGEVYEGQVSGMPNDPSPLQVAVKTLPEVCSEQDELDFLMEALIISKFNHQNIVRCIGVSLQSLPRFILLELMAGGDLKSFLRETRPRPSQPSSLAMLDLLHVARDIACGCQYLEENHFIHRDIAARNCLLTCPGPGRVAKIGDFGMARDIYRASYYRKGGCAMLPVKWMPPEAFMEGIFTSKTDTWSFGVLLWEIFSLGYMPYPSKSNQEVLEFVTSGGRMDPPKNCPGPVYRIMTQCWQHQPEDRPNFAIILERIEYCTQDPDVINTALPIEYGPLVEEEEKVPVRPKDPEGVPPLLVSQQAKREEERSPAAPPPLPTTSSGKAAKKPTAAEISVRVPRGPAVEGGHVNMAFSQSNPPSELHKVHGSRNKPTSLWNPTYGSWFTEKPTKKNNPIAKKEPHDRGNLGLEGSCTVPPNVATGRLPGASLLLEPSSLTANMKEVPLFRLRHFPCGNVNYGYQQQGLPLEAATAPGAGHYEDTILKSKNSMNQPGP

Compound: CNC(=O)c1ccccc1Nc1nc(Nc2ccc3c(c2)C2CCC(C3)N2)ncc1Cl (centres unmarked) [Example 79, 2-[2-(12-Aza-tricyclo[7.2.1.0*2,7*]dodeca-2(7),3,5-trien-4-ylamino)-5-chloro-pyrimidin-4-ylamino]-N-methyl-benzamide]
IC50 [1, 3]: < 100 nM
IC50 [2, 4]: < 100 nM

Compound: NC(=O)C1C2C=CC(C2)C1Nc1nc(Nc2ccc3c(c2)CNC(=O)CC3)ncc1Cl (stereo not drawn) [Example 1797, 3-exo-[5-Chloro-2-(3-oxo-2,3,4,5-tetrahydro-1H-benzo[c]azepin-8-ylamino)-pyrimidin-4-yl]aminobicyclo[2.2.1]hept-5-ene-2-exo-carboxamide]
IC50 [1, 5]: < 100 nM
IC50 [2, 6]: 100 to 1000 nM

Compound: CC1(C)CCCNc2cc(Nc3ncc(Cl)c(N[C@H]4[C@@H](C(N)=O)[C@@H]5C=C[C@H]4C5)n3)ccc21 [Example 1613, (1S,2S,3R,4R)-3-[5-Chloro-2-(5,5-dimethyl-2,3,4,5-tetrahydro-1H-benzo[b]azepin-8-ylamino)-pyrimidin-4-ylamino]-bicyclo[2.2.1]hept-5-ene-2-carboxylic acid amide]
IC50 [1, 5]: < 100 nM
IC50 [2, 6]: 100 to 1000 nM

Compound: CNC(=O)c1cc(-c2cnn(C)c2)cc(F)c1Nc1nc(Nc2ccc3c(c2)N(C(C)=O)CCCO3)ncc1Cl [Example 1424, 2-[2-(9-Acetyl-6,7,8,9-tetrahydro-5-oxa-9-aza-benzocyclohepten-2-ylamino)-5-chloro-pyrimidin-4-ylamino]-3-fluoro-N-methyl-5-(1-methyl-1H-pyrazol-4-yl)-benzamide]
IC50 [1, 7]: 100 to 1000 nM
IC50 [2, 8]: < 100 nM

Compound: CNC(=O)c1ccccc1Nc1nc(Nc2ccc3c(c2)C2CCC(C3)N2C(=O)C2CC2)ncc1Cl (centres unmarked) [Example 70, 2-[5-Chloro-2-(12-cyclopropanecarbonyl-12-aza-tricyclo[7.2.1.0*2,7*]dodeca-2(7),3,5-trien-4-ylamino)-pyrimidin-4-ylamino]-N-methyl-benzamide]
IC50 [1, 3]: < 100 nM
IC50 [2, 4]: < 100 nM

Compound: COc1ccc2c(c1Nc1ncc(Cl)c(N[C@@H]3CCCC[C@H]3NS(C)(=O)=O)n1)CCC(NCC(F)F)CC2 (single isomer, unassigned) [Example 1075]
IC50 [1, 7]: 1000 to 10000 nM
IC50 [2, 8]: > 10000 nM

Compound: COc1c(Nc2ncc(Cl)c(N[C@H]3[C@@H](C(N)=O)[C@@H]4C=C[C@H]3C4)n2)ccc2c1CCC(NCCO)CC2 (single isomer, unassigned) [Example 697]
IC50 [1, 9]: < 100 nM
IC50 [2, 10]: 1000 to 10000 nM

Compound: CCN1CC2CCC(C1)c1cc(Nc3ncc(Cl)c(Nc4ccccc4S(=O)(=O)NC)n3)ccc12 (centres unmarked) [Example 272, 2-[5-Chloro-2-(10-ethyl-10-aza-tricyclo[6.3.2.0*2,7*]trideca-2,4,6-trien-4-ylamino)-pyrimidin-4-ylamino]-N-methyl-benzenesulfonamide]
IC50 [1, 3]: < 100 nM
IC50 [2, 4]: 100 to 1000 nM

Compound: COc1c(Nc2ncc(Cl)c(N[C@H]3[C@@H](C(N)=O)[C@@H]4C=C[C@H]3C4)n2)ccc2c1CCCC(N1CCOCC1)C2 (single isomer, unassigned) [Example 940]
IC50 [1, 9]: < 100 nM
IC50 ([2]; cMet Activity (c-Met Kinase Inhibition, IC50), 1 μM ATP (Km level)): > 10000 nM

Compound: CN(C)CCN1CCCC(C)(C)c2ccc(Nc3ncc(Cl)c(N[C@H]4[C@@H](C(N)=O)[C@@H]5C=C[C@H]4C5)n3)cc21 [Example 1640, (1S,2S,3R,4R)-3-{5-Chloro-2-[1-(2-dimethylamino-ethyl)-5,5-dimethyl-2,3,4,5-tetrahydro-1H-benzo[b]azepin-8-ylamino]-pyrimidin-4-ylamino}-bicyclo[2.2.1]hept-5-ene-2-carboxylic acid amide]
IC50 [1, 5]: < 100 nM
IC50 [2, 6]: < 100 nM

Compound: COc1ccc2c(c1Nc1ncc(Cl)c(N[C@@H]3CCCC[C@H]3NS(C)(=O)=O)n1)CCC(NCC(F)F)CC2 (single isomer, unassigned) [Example 1074]
IC50 [1, 7]: 100 to 1000 nM
IC50 [2, 8]: > 10000 nM

Other lines, results leading:

IC50 [1, 5]: 100 to 1000 nM
IC50 [2, 6]: < 100 nM
Compound: CCN1C(=O)C(NC(=O)C(F)(F)F)CC(C)(C)c2ccc(Nc3ncc(Cl)c(Nc4c(F)cccc4C(=O)NC)n3)cc21 (centres unmarked) [Example 1642, 2-{5-Chloro-2-[1-ethyl-5,5-dimethyl-2-oxo-3-(2,2,2-trifluoro-acetylamino)-2,3,4,5-tetrahydro-1H-benzo[b]azepin-8-ylamino]-pyrimidin-4-ylamino}-3-fluoro-N-methyl-benzamide]

IC50 [1, 7]: 100 to 1000 nM
IC50 [2, 8]: 100 to 1000 nM
Compound: CC(=O)N1CCC(=O)NCc2cc(Nc3ncc(Cl)c(Nc4ccccc4CCC#N)n3)ccc21 [Example 1233, 3-{2-[2-(1-Acetyl-4-oxo-1,2,3,4,5,6-hexahydro-benzo[b][1,5]diazocin-8-ylamino)-5-chloro-pyrimidin-4-ylamino]-phenyl}-propionitrile]

IC50 [1, 5]: < 100 nM
IC50 [2, 6]: > 10000 nM
Compound: CCN1CC(=O)Nc2cc(Nc3ncc(Cl)c(Nc4ccccc4S(=O)(=O)N(C)C)n3)c(OC)cc2C1 [Example 1659, 2-[5-Chloro-2-(4-ethyl-7-methoxy-2-oxo-2,3,4,5-tetrahydro-1H-benzo[e][1,4]diazepin-8-ylamino)-pyrimidin-4-ylamino]-N,N-dimethyl-benzenesulfonamide]

IC50 [1, 7]: 100 to 1000 nM
IC50 [2, 8]: 100 to 1000 nM
Compound: CCN1C(=O)CCCc2ccc(Nc3ncc(Cl)c(Nc4cccc(CC#N)c4)n3)cc21 [Example 1229, {3-[5-Chloro-2-(1-ethyl-2-oxo-2,3,4,5-tetrahydro-1H-1-benzazepin-8-ylamino)-pyrimidin-4-ylamino]-phenyl}-acetonitrile]

IC50 [1, 5]: < 100 nM
IC50 [2, 6]: 1000 to 10000 nM
Compound: COCCN1C(=O)CCC(C)(C)c2ccc(Nc3ncc(Cl)c(Nc4ccc(N5CCOCC5)cc4OC)n3)cc21 [Example 1584, 8-[5-Chloro-4-(2-methoxy-4-morpholin-4-yl-phenylamino)-pyrimidin-2-ylamino]-1-(2-methoxy-ethyl)-5,5-dimethyl-1,3,4,5-tetrahydro-benzo[b]azepin-2-one]

IC50 [1, 9]: < 100 nM
IC50 [2, 10]: > 10000 nM
Compound: CC1(C)CCC(=O)Nc2ccc(Nc3ncc(Cl)c(Nc4ccccc4-c4nccs4)n3)cc21 [Example 978, 7-[5-Chloro-4-(2-thiazol-2-yl-phenylamino)-pyrimidin-2-ylamino]-5,5-dimethyl-1,3,4,5-tetrahydro-benzo[b]azepin-2-one]

IC50 [1, 3]: < 100 nM
IC50 [2, 4]: < 100 nM
Compound: CCN1CCc2ccc(Nc3ncc(Cl)c(Nc4ccccc4S(=O)(=O)NC)n3)cc2CC1 [Example 32, 2-[5-Chloro-2-(3-ethyl-2,3,4,5-tetrahydro-1H-benzo[d]azepin-7-ylamino)-pyrimidin-4-ylamino]-N-methyl-benzenesulfonamide]

IC50 [1, 9]: < 100 nM
IC50 [2, 10]: < 100 nM
Compound: CNC(=O)c1ccccc1Nc1nc(Nc2ccc3c(c2)CCCC(=O)N3CCOC)ncc1C(F)(F)F [Example 921, 2-{2-[1-(2-Methoxyethyl)-2-oxo-2,3,4,5-tetrahydro-1H-benzo[b]azepin-7-ylamino]-5-trifluoromethylpyrimidin-4-ylamino}-N-methylbenzamide]

IC50 [1, 7]: 100 to 1000 nM
IC50 [2, 8]: 1000 to 10000 nM
Compound: CCOC(=O)N1CCCOc2ccc(Nc3ncc(Cl)c(Nc4ccsc4C(=O)NC)n3)cc21 [Example 1411, 2-[5-Chloro-4-(2-methylcarbamoyl-thiophen-3-ylamino)-pyrimidin-2-ylamino]-7,8-dihydro-6H-5-oxa-9-aza-benzocycloheptene-9-carboxylic acid ethyl ester]

IC50 [1, 3]: < 100 nM
IC50 [2, 4]: < 100 nM
Compound: CNC(=O)c1ccccc1Nc1nc(Nc2ccc3c(c2)C2CCC3CN(CCF)C2)ncc1Cl (centres unmarked) [Example 280, 2-{5-Chloro-2-[10-(2-fluoro-ethyl)-10-aza-tricyclo[6.3.2.0*2,7*]trideca-2,4,6-trien-4-ylamino]-pyrimidin-4-ylamino}-N-methyl-benzamide]

IC50 [1, 7]: < 100 nM
IC50 [2, 8]: > 10000 nM
Compound: COc1cc2c(cc1Nc1ncc(Cl)c(Nc3ccccc3C(=O)OC(C)C)n1)CCN(CCCN(C)C)C(=O)C2 [Example 1111, 2-{5-Chloro-2-[3-(3-dimethylamino-propyl)-8-methoxy-2-oxo-2,3,4,5-tetrahydro-1H-benzo[d]azepin-7-ylamino]-pyrimidin-4-ylamino}-benzoic acid isopropyl ester]

IC50 [1, 9]: < 100 nM
IC50 [2, 10]: 1000 to 10000 nM
Compound: CCN1CCN(CC)c2cc(Nc3ncc(Cl)c(N[C@H]4[C@@H](C(N)=O)[C@@H]5C=C[C@H]4C5)n3)ccc2C1 [Example 720, (1S,2S,3R,4R)-3 [5-Chloro-2-(1,4-diethyl-2,3,4,5-tetrahydro-1H-1,4-benzodiazepin-8-ylamino)-pyrimidin-4ylamino]-bicyclo[2.2.1]hept-5-ene-2-carboxylic acid amide]

IC50 [1, 9]: < 100 nM
IC50 [2, 10]: < 100 nM
Compound: CN(C)S(=O)(=O)c1ccccc1Nc1nc(Nc2ccc3c(c2)CCN(C(=O)C2COCCO2)CC3)ncc1Cl (centres unmarked) [Example 638, 2-{5-Chloro-2-[3-([1,4]dioxane-2-carbonyl)-2,3,4,5-tetrahydro-1H-benzo[d]azepin-7-ylamino]-pyrimidin-4-ylamino}-N,N-dimethyl-benzenesulfonamide]

IC50 [1, 5]: < 100 nM
IC50 [2, 6]: > 10000 nM
Compound: CCN1CC(=O)Nc2cc(Nc3ncc(Cl)c(Nc4ccc(OC)cc4-n4cccn4)n3)c(OC)cc2C1 [Example 1662, 8-[5-Chloro-4-(4-methoxy-2-pyrazol-1-yl-phenylamino)-pyrimidin-2-ylamino]-4-ethyl-7-methoxy-1,3,4,5-tetrahydro-benzo[e][1,4]diazepin-2-one]
